Data from article PMC11031313 (Cell chemical biology, 2024).

Experiments:
[1] = test system: Nef-mediated MHC-I downregulation; assay: Rescue of cell-surface MHC-I in Dox-induced CEM/Nef-eGFP T cells; type: cell-based, human; conditions: 3 μM, 24 h
[2] = test system: Nef-mediated CD4 downregulation; assay: Rescue of cell-surface CD4 in Dox-induced CEM/Nef-eGFP T cells; type: cell-based, human; conditions: 3 μM, 24 h
Nef-eGFP fusion protein = Nef-eGFP fusion protein (UniProt P03406+Q96SW2); assay: Nef-eGFP protein loss in CEM/Nef-eGFP cells by flow cytometry; type: cell-based, HIV-1; conditions: 3 μM, 24 h
HIV-1 Nef (SF2 variant) = HIV-1 Nef (SF2 variant) (Human immunodeficiency virus type 1 group M subtype B, UniProt P03407); type: cell-based; conditions: 293T cells, PROTAC 10 μM, 24 h
[3] = molecular target: Nef (NL4-3 variant) and CRBN thalidomide-binding domain (UniProt P03406+Q96SW2, A33V/T15A/T51N/V11I); assay: PROTAC-mediated ternary complex formation in vitro; conditions: 25 μM of each protein, 5-, 10- or 20-fold molar excess of PROTAC
[4] = molecular target: HIV-1 Nef (NL4-3 variant) (Human immunodeficiency virus type 1, UniProt Q90VU7); assay: SPR binding to HIV-1 Nef; conditions: for binding kinetics with Nef (in words): SPR, 90 s association, 180 s dissociation
[5] = molecular target: thalidomide-binding domain of CRBN (Homo sapiens, UniProt Q96SW2); assay: SPR binding to CRBN thalidomide-binding domain; conditions: 90 s association, 180 s dissociation
uninfected PBMCs = assay: Viability of uninfected PBMCs; type: cell-based, human; conditions: 1 μM, 4 days
HIV-1NL4-3 [6] = assay: HIV-1 replication in donor PBMCs; type: cell-based; conditions: 1 μM, 4 days
[7] = molecular target: M-group HIV-1 Nef variants; assay: SPR binding to M-group HIV-1 Nef variants; conditions: HIV-1 Nef proteins
IKZF1 (Ikaros) = IKZF1 (Ikaros) (Homo sapiens, UniProt Q13422); assay: IKZF1 protein level in CEM/Nef-eGFP T cells; type: cell-based; conditions: CEM/Nef-eGFP cells after Dox induction
SIV Nef mac239 = SIV Nef mac239 (Simian immunodeficiency virus, UniProt Q5QGG3); assay: SPR binding to SIV Nef mac239
TZM-bl cells = assay: Viability of uninfected TZM-bl cells; type: cell-based, human
HIV-1NL4-3 [8] = assay: HIV-1 infectivity assay in TZM-bl reporter cells; type: cell-based; conditions: Human immunodeficiency virus 1, TZM-bl, 48 h, read-out: IC50, HIV-1 infectivity

Nef (NL4-3 variant) and CRBN thalidomide-binding domain, sequence (Q96SW2 317-425, other chains not shown): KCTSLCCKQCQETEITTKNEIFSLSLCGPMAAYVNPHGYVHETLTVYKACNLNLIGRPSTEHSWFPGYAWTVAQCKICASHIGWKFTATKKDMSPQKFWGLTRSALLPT
Nef-eGFP fusion protein, sequence (Q16531 whole entry, other chains not shown, the tested form may be a part): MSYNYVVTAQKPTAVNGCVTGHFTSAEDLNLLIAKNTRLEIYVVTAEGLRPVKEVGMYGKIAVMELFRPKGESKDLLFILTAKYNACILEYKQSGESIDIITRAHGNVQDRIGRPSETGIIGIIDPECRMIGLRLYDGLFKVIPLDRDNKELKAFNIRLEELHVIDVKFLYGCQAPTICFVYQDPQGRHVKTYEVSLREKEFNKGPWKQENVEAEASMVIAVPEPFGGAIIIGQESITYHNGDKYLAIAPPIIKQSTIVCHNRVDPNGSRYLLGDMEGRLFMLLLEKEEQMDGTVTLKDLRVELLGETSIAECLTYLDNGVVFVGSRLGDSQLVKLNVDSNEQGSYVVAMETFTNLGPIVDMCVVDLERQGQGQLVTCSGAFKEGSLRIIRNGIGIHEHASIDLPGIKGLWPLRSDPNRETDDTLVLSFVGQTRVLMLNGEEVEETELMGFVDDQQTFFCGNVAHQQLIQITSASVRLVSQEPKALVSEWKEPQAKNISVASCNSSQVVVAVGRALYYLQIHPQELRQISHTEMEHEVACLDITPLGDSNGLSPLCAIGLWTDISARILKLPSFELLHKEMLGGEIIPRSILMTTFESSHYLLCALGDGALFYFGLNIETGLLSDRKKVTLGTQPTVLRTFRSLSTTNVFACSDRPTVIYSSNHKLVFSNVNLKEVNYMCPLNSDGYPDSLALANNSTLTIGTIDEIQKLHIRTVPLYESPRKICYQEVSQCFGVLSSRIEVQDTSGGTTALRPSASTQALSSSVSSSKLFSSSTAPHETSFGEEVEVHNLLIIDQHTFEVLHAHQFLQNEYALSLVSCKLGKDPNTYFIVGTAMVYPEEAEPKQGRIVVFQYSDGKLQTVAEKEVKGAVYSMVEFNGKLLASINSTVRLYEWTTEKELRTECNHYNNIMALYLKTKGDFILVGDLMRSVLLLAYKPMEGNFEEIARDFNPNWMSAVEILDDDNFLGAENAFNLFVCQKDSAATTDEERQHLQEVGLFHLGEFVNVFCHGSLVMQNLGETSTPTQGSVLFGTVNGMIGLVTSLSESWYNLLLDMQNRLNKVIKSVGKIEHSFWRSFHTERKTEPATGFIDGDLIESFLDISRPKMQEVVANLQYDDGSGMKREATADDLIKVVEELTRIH
Nef-eGFP fusion protein, sequence (Q96SW2 whole entry, other chains not shown, the tested form may be a part): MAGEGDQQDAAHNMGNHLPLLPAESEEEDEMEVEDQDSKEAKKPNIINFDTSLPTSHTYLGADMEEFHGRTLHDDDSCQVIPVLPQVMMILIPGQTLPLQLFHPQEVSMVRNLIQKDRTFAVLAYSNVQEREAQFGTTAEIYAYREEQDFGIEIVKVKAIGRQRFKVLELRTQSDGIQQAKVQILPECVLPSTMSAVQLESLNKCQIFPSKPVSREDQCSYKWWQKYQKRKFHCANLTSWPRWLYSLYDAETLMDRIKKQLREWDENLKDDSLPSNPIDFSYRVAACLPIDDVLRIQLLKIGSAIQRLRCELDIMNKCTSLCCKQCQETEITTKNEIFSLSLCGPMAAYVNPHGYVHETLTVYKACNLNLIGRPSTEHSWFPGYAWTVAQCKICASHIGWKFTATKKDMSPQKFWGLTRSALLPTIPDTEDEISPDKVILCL
thalidomide-binding domain of CRBN, sequence (Q96SW2 317-425): as the sequence (Q96SW2 317-425, other chains not shown) above
IKZF1 (Ikaros), sequence (Q13422 whole entry): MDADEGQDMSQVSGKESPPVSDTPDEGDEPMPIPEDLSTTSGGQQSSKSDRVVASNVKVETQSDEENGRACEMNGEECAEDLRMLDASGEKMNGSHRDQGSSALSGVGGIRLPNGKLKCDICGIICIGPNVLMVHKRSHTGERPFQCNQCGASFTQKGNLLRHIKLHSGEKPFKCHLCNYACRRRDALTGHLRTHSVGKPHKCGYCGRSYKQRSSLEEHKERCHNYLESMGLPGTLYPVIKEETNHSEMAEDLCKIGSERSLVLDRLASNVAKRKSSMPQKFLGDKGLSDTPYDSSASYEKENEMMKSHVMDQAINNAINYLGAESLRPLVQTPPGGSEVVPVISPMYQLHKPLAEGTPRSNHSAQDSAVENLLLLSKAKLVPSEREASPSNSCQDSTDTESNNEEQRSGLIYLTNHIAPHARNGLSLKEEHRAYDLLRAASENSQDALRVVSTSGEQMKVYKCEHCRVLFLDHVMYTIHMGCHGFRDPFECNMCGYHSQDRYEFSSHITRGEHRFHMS

Compound	cell-surface MHC-I rescue (in words) [1]	cell-surface CD4 rescue (in words) [2]	Nef-eGFP protein loss / Nef degradation (in words) (Nef-eGFP fusion protein)	induction of Nef ubiquitylation (in words) (HIV-1 Nef (SF2 variant))	ternary complex formation (in words) [3]	binding kinetics with Nef (in words) [4]	Kd [7]	Kd (SIV Nef mac239)	further results
O=C(COCCOc1ccc(CCc2c(-c3ccc(C(F)(F)F)cc3)nn(-c3nc4cc(Cl)ccc4[nH]3)c2O)cc1)NCCNc1cccc2c1C(=O)N(C1CCC(=O)NC1=O)C2=O (centres unmarked) [FC-13182, 2-[2-(4-{2-[1-(5-chloro-1H-1,3-benzodiazol-2-yl)-5-hydroxy-3-[4-(trifluoromethyl)phenyl]-1H-pyrazol-4-yl]ethyl}phenoxy)ethoxy]-N-(2-{[2-(2,6-dioxopiperidin-3-yl)-1,3-dioxo-2,3-dihydro-1H-isoindol-4-yl]amino}ethyl)acetamide]	restored CD4 and MHC-I expression	restored CD4 and MHC-I expression	effectively induced Nef degradation	–	–	–	–	–	–
CN(CCNC(=O)COCCOc1ccc(CCc2c(-c3ccc(C(F)(F)F)cc3)nn(-c3nc4cc(Cl)ccc4[nH]3)c2O)cc1)c1cccc2c1C(=O)N(C1CCC(=O)NC1=O)C2=O (centres unmarked) [FC-13887, 2-[2-(4-{2-[1-(5-chloro-1H-1,3-benzodiazol-2-yl)-5-hydroxy-3-[4-(trifluoromethyl)phenyl]-1H-pyrazol-4-yl]ethyl}phenoxy)ethoxy]-N-(2-{[2-(2,6-dioxopiperidin-3-yl)-1,3-dioxo-2,3-dihydro-1H-isoindol-4-yl](methyl)amino}ethyl)acetamide]	–	–	–	active	induce ternary complexes of Nef with CRBN	–	–	–	z-score of normalized BRET ratio (Nef ubiquitylation) (HIV-1 Nef (SF2 variant)): 1.3
O=C(COc1cccc2c1CN(C1CCC(=O)NC1=O)C2=O)NCCOCCOCCOCc1ccc(-c2nn(-c3nc4cc(Cl)ccc4[nH]3)c(O)c2CCc2ccc(F)cc2)cc1 (centres unmarked) [FC-12988, N-(2-{2-[2-({4-[1-(5-chloro-1H-1,3-benzodiazol-2-yl)-4-[2-(4-fluorophenyl)ethyl]-5-hydroxy-1H-pyrazol-3-yl]phenyl}methoxy)ethoxy]ethoxy}ethyl)-2-{[2-(2,6-dioxopiperidin-3-yl)-1-oxo-2,3-dihydro-1H-isoindol-4-yl]oxy}acetamide]	restored CD4 and MHC-I expression	restored CD4 and MHC-I expression	effectively induced Nef degradation	–	induce ternary complexes of Nef with CRBN	more rapid association and release compared to FC-13182	–	–	binding kinetics with CRBN thalidomide-binding domain (in words) [5]: associated more slowly than FC-13182 and showed a comparatively slow dissociation phase
O=C(COCCOCCOCCCc1ccc(-c2nn(-c3nc4cc(Cl)ccc4[nH]3)c(O)c2CCc2ccc(F)cc2)cc1)NCCNc1cccc2c1C(=O)N(C1CCC(=O)NC1=O)C2=O (centres unmarked) [FC-13818, 2-{2-[2-(3-{4-[1-(5-chloro-1H-1,3-benzodiazol-2-yl)-4-[2-(4-fluorophenyl)ethyl]-5-hydroxy-1H-pyrazol-3-yl]phenyl}propoxy)ethoxy]ethoxy}-N-(2-{[2-(2,6-dioxopiperidin-3-yl)-1,3-dioxo-2,3-dihydro-1H-isoindol-4-yl]amino}ethyl)acetamide]	–	–	–	–	induce ternary complexes of Nef with CRBN	–	–	–	reduction of viability (uninfected PBMCs): 20%; HIV-1 replication (in words) (HIV-1NL4-3 [6]): reduced HIV-1 replication below the level of the ΔNef mutant
O=C(COc1ccc(CCc2c(-c3ccc(C(F)(F)F)cc3)nn(-c3nc4cc(Cl)ccc4[nH]3)c2O)cc1)NCCNc1cccc2c1C(=O)N(C1CCC(=O)NC1=O)C2=O (centres unmarked) [FC-14369, 2-(4-{2-[1-(5-chloro-1H-1,3-benzodiazol-2-yl)-5-hydroxy-3-[4-(trifluoromethyl)phenyl]-1H-pyrazol-4-yl]ethyl}phenoxy)-N-(2-{[2-(2,6-dioxopiperidin-3-yl)-1,3-dioxo-2,3-dihydro-1H-isoindol-4-yl]amino}ethyl)acetamide]	–	–	parallel loss in Nef expression	active	–	delayed dissociation	< 1000 nM	< 1000 nM	Kd [4]: 6.5 nM; effect on the protein level of IKZF1 (IKZF1 (Ikaros)): reduced the expression of IKZF1; cytotoxicity (in words) (TZM-bl cells): without cytotoxicity; IC50 (HIV-1NL4-3 [8]): ~250 nM
O=C1CCC(N2Cc3c(OCC(=O)N4CCC(c5nn(-c6nc7cc(Cl)ccc7[nH]6)c(O)c5CCc5ccc(F)cc5)CC4)cccc3C2=O)C(=O)N1 (centres unmarked) [FC-14367, 3-[4-(2-{4-[1-(5-chloro-1H-1,3-benzodiazol-2-yl)-4-[2-(4-fluorophenyl)ethyl]-5-hydroxy-1H-pyrazol-3-yl]piperidin-1-yl}-2-oxoethoxy)-1-oxo-2,3-dihydro-1H-isoindol-2-yl]piperidine-2,6-dione]	–	–	–	–	–	–	< 1000 nM	< 1000 nM	–
